In patent US10174047B2, “Thienodiazepine derivatives or pharmaceutically acceptable salts thereof, and pharmaceutical composition including the same as an active ingredient” (Industry-University Cooperation Foundation Hanyang …, priority 2015, dated 2019):

These compounds were tested on A375P cell line (melanoma) (assay: Proliferation inhibition activity against A375P cell line (MTT assay)). Conditions: A375P melanoma cells, MTT assay; read-out: A375P (GI50).
Type: cell-based
Method: Measurement of Proliferation Inhibition Activity Against A375P Cell Line (Melanoma)
An A375P cell line purchased from ATCC was cultured in a DMEM medium [containing 10% FBS, 1% penicillin/streptomycin] at 37° C. in the presence of 5% CO2. The cultured A375P cell line was taken using 0.05% trypsin-0.02% EDTA, and seeded into a 96-well plate at a density of 5×10^3 cells per well.
Cell viability was measured using an MTT [3-(4,5-dimethylthiazol-2-yl)-2,5-diphenyltetrazolium bromide] assay (CellTiter 96 Assay, Promega) as follows. 15 μl of dye was placed per well, the cells were cultured for 2 hours, and then treated with 100 μl of a stop solution, and after 24 hours, absorbance was measured. One day after plating, they were treated with compounds. For treatment with compounds, […] of stock was prepared, and serially diluted to one-third in dimethyl sulfoxide (DMSO) to prepare a 12-point test compound plate, and 0.5 μl was added (final concentration DMSO 0.5%).
In the following Tables 1 to 3, in a case of GI50 being 10 to 30 μM, it was indicated as (+), in a case of it being 1 to 10 μM, it was indicated as (++), and in case of being less than 1 μM, it was indicated as (+++).

Compared with `O=C1CC(c2cccc(NC(=O)Nc3ccc(Cl)cc3)c2)=Nc2cscc2N1` [Example 47, 1-(4-chlorophenyl)-3-(3-(2-oxo-2,3-dihydro-1H-thieno[3,4-b][1,4]diazepine-4-yl)phenyl)urea], `O=C1CC(c2ccc(NC(=O)Nc3cccc(Cl)c3)cc2)=Nc2cscc2N1` [Example 41, 1-(3-chlorophenyl)-3-(4-(2-oxo-2,3-dihydro-1H-thieno[3,4-b][1,4]diazepine-4-yl)phenyl)urea] is higher in GI50: 1 to 10 µM for the first, 10 to 30 µM for the second.

`N#Cc1ccccc1Sc1ccccc1C(=O)Nc1cccc(C2=Nc3cscc3NC(=O)C2)c1` [Example 32, 2-(2-cyanophenylthio)-N-(3-(2-oxo-2,3-dihydro-1H-thieno[3,4-b][1,4]diazepine-4-yl)phenyl)benzamide] and `N#Cc1ccccc1Sc1ccccc1C(=O)Nc1ccc(C2=Nc3cscc3NC(=O)C2)cc1` [Example 15, 2-(2-cyanophenylthio)-N-(4-(2-oxo-2,3-dihydro-1H-thieno[3,4-b][1,4]diazepine-4-yl)phenyl)benzamide] fall in the same range of GI50: 10 to 30 µM for the first, 10 to 30 µM for the second.

First: O=C1CC(c2ccc(NC(=O)c3cc(N4CCOCC4)cc(C(F)(F)F)c3)cc2)=Nc2cscc2N1 [Example 3, 3-morpholino-N-(4-(2-oxo-2,3-dihydro-1H-thieno[3,4-b][1,4]diazepine-4-yl)phenyl)-5-(trifluoromethyl)benzamide]
Second: CN1CCN(c2cc(C(=O)Nc3ccc(C4=Nc5cscc5NC(=O)C4)cc3)cc(C(F)(F)F)c2)CC1 [Example 12, 3-(4-methylpiperazine-1-yl)-N-(4-(2-oxo-2,3-dihydro-1H-thieno[3,4-b][1,4]diazepine-4-yl)phenyl)-5-(trifluoromethyl)benzamide]
The GI50 of the first is lower: less than 1 µM for the first, 10 to 30 µM for the second.

First: O=C1CC(c2ccc(NC(=O)Nc3cc(Cl)cc(Cl)c3)cc2)=Nc2cscc2N1 [Example 44, 1-(3,5-dichlorophenyl)-3-(4-(2-oxo-2,3-dihydro-1H-thieno[3,4-b][1,4]diazepine-4-yl)phenyl)urea]
Second: O=C1CC(c2cccc(NC(=O)Nc3cc(Cl)cc(Cl)c3)c2)=Nc2cscc2N1 [Example 51, 1-(3,5-dichlorophenyl)-3-(3-(2-oxo-2,3-dihydro-1H-thieno[3,4-b][1,4]diazepine-4-yl)phenyl)urea]
The GI50 of the first is lower: less than 1 µM for the first, 10 to 30 µM for the second.

First: Cc1cn(-c2cc(C(=O)Nc3ccc(C4=Nc5cscc5NC(=O)C4)cc3)cc(C(F)(F)F)c2)cn1 [Example 2, 3-(4-methyl-1H-imidazol-1-yl)-N-(4-(2-oxo-2,3-dihydro-1H-thieno[3,4-b][1,4]diazepine-4-yl)phenyl)-5-(trifluoromethyl)benzamide]
Second: Cc1cn(-c2cc(C(=O)Nc3cccc(C4=Nc5cscc5NC(=O)C4)c3)cc(C(F)(F)F)c2)cn1 [Example 19, 3-(4-methyl-1H-imidazol-1-yl)-N-(3-(2-oxo-2,3-dihydro-1H-thieno[3,4-b][1,4]diazepine-4-yl)phenyl)-5-(trifluoromethyl)benzamide]
The GI50 of the first is lower: less than 1 µM for the first, 10 to 30 µM for the second.

`O=C1CC(c2ccc(NC(=O)c3ccc(Cl)cc3)cc2)=Nc2cscc2N1` [Example 13, 4-chloro-N-(4-(2-oxo-2,3-dihydro-1H-thieno[3,4-b][1,4]diazepine-4-yl)phenyl)benzamide] and `O=C1CC(c2ccc(NC(=O)c3ccncc3)cc2)=Nc2cscc2N1` [Example 10, N-(4-(2-oxo-2,3-dihydro-1H-thieno[3,4-b][1,4]diazepine-4-yl)phenyl)isonicotinamide] fall in the same range of GI50: 10 to 30 µM for the first, 10 to 30 µM for the second.

Compared with `O=C1CC(c2cccc(NC(=O)c3ccc(-c4ccccc4)cc3)c2)=Nc2cscc2N1` [Example 22, N-(3-(2-oxo-2,3-dihydro-1H-thieno[3,4-b][1,4]diazepine-4-yl)phenyl)biphenyl-4-carboxamide], `O=C1CC(c2ccc(NC(=O)c3ccc(-c4ccccc4)cc3)cc2)=Nc2cscc2N1` [Example 5, N-(4-(2-oxo-2,3-dihydro-1H-thieno[3,4-b][1,4]diazepine-4-yl)phenyl)biphenyl-4-carboxamide] is lower in GI50: 10 to 30 µM for the first, less than 1 µM for the second.

`O=C(Cc1c[nH]c2ccccc12)Nc1ccc(C2=Nc3cscc3NC(=O)C2)cc1` [Example 14, 2-(1H-indol-3-yl)-N-(4-(2-oxo-2,3-dihydro-1H-thieno[3,4-b][1,4]diazepine-4-yl)phenyl)acetamide] and `O=C(Cc1c[nH]c2ccccc12)Nc1cccc(C2=Nc3cscc3NC(=O)C2)c1` [Example 31, 2-(1H-indol-3-yl)-N-(3-(2-oxo-2,3-dihydro-1H-thieno[3,4-b][1,4]diazepine-4-yl)phenyl)acetamide] fall in the same range of GI50: 10 to 30 µM for the first, 10 to 30 µM for the second.

`O=C1CC(c2cccc(NC(=O)c3ccncc3)c2)=Nc2cscc2N1` [Example 27, N-(3-(2-oxo-2,3-dihydro-1H-thieno[3,4-b][1,4]diazepine-4-yl)phenyl)isonicotinamide] and `O=C1CC(c2cccc(NC(=O)c3cnccn3)c2)=Nc2cscc2N1` [Example 28, N-(3-(2-oxo-2,3-dihydro-1H-thieno[3,4-b][1,4]diazepine-4-yl)phenyl)pyrazine-2-carboxamide] fall in the same range of GI50: 10 to 30 µM for the first, 10 to 30 µM for the second.

`O=C1CC(c2ccc(NC(=O)c3cnccn3)cc2)=Nc2cscc2N1` [Example 11, N-(4-(2-oxo-2,3-dihydro-1H-thieno[3,4-b][1,4]diazepine-4-yl)phenyl)pyrazine-2-carboxamide] and `Cc1cc(C)cc(C(=O)Nc2ccc(C3=Nc4cscc4NC(=O)C3)cc2)c1` [Example 17, 3,5-dimethyl-N-(4-(2-oxo-2,3-dihydro-1H-thieno[3,4-b][1,4]diazepine-4-yl)phenyl)benzamide] fall in the same range of GI50: 10 to 30 µM for the first, 10 to 30 µM for the second.

First: CCN1CCN(Cc2ccc(NC(=O)Nc3cccc(C4=Nc5cscc5NC(=O)C4)c3)cc2C(F)(F)F)CC1 [Example 49, 1-(4-((4-ethylpiperazine-1-yl)methyl)-3-(trifluoromethyl)phenyl)-3-(3-(2-oxo-2,3-dihydro-1H-thieno[3,4-b][1,4]diazepine-4-yl)phenyl)urea]
Second: O=C1CC(c2cccc(NC(=O)Nc3ccc(Cl)c(C(F)(F)F)c3)c2)=Nc2cscc2N1 [Example 46, 1-(4-chloro-3-(trifluoromethyl)phenyl)-3-(3-(2-oxo-2,3-dihydro-1H-thieno[3,4-b][1,4]diazepine-4-yl)phenyl)urea]
The GI50 of the first is lower: less than 1 µM for the first, 1 to 10 µM for the second.

`Cc1c(C)c2c(c(C)c1O)CC[C@](C)(C(=O)Nc1cccc(C3=Nc4cscc4NC(=O)C3)c1)O2` [Example 38, (R)-6-hydroxy-2,5,7,8-tetramethyl-N-(3-(2-oxo-2,3-dihydro-1H-thieno[3,4-b][1,4]diazepine-4-yl)phenyl)chroman-2-carboxamide] and `O=C1CC(c2cccc(NC(=O)Nc3ccccc3F)c2)=Nc2cscc2N1` [Example 52, 1-(2-fluorophenyl)-3-(3-(2-oxo-2,3-dihydro-1H-thieno[3,4-b][1,4]diazepine-4-yl)phenyl)urea] fall in the same range of GI50: 10 to 30 µM for the first, 10 to 30 µM for the second.

`O=C1CC(c2cccc(NC(=O)c3cnc4ccccc4c3)c2)=Nc2cscc2N1` [Example 37, N-(3-(2-oxo-2,3-dihydro-1H-thieno[3,4-b][1,4]diazepine-4-yl)phenyl)quinoline-3-carboxamide] and `O=C1CC(c2cccc(NC(=O)c3ccc4ccccc4n3)c2)=Nc2cscc2N1` [Example 36, N-(3-(2-oxo-2,3-dihydro-1H-thieno[3,4-b][1,4]diazepine-4-yl)phenyl)quinoline-2-carboxamide] fall in the same range of GI50: 10 to 30 µM for the first, 10 to 30 µM for the second.

Compared with `O=C1CC(c2cccc(NC(=O)Nc3cccc(Cl)c3)c2)=Nc2cscc2N1` [Example 48, 1-(3-chlorophenyl)-3-(3-(2-oxo-2,3-dihydro-1H-thieno[3,4-b][1,4]diazepine-4-yl)phenyl)urea], `O=C1CC(c2cccc(NC(=O)Nc3ccc(Cl)c(Cl)c3)c2)=Nc2cscc2N1` [Example 50, 1-(3,4-dichlorophenyl)-3-(3-(2-oxo-2,3-dihydro-1H-thieno[3,4-b][1,4]diazepine-4-yl)phenyl)urea] is higher in GI50: less than 1 µM for the first, 1 to 10 µM for the second.

`O=C(Cc1ccccc1F)Nc1cccc(C2=Nc3cscc3NC(=O)C2)c1` [Example 35, 2-(2-fluorophenyl)-N-(3-(2-oxo-2,3-dihydro-1H-thieno[3,4-b][1,4]diazepine-4-yl)phenyl)acetamide] and `O=C(Cc1ccc(-c2ccccc2)cc1)Nc1cccc(C2=Nc3cscc3NC(=O)C2)c1` [Example 33, 2-(biphenyl-4-yl)-N-(3-(2-oxo-2,3-dihydro-1H-thieno[3,4-b][1,4]diazepine-4-yl)phenyl)acetamide] fall in the same range of GI50: 10 to 30 µM for the first, 10 to 30 µM for the second.

`O=C1CC(c2ccc(NC(=O)c3ccc(N4CCOCC4)c(C(F)(F)F)c3)cc2)=Nc2cscc2N1` [Example 4, 4-morpholino-N-(4-(2-oxo-2,3-dihydro-1H-thieno[3,4-b][1,4]diazepine-4-yl)phenyl)-3-(trifluoromethyl)benzamide] and `O=C1CC(c2ccc(NC(=O)Nc3ccc(Cl)c(Cl)c3)cc2)=Nc2cscc2N1` [Example 42, 1-(3,4-dichlorophenyl)-3-(4-(2-oxo-2,3-dihydro-1H-thieno[3,4-b][1,4]diazepine-4-yl)phenyl)urea] fall in the same range of GI50: 1 to 10 µM for the first, 1 to 10 µM for the second.

For `O=C1CC(c2ccc(NC(=O)c3ccccc3-c3ccccc3)cc2)=Nc2cscc2N1` [Example 6, N-(4-(2-oxo-2,3-dihydro-1H-thieno[3,4-b][1,4]diazepine-4-yl)phenyl)biphenyl-2-carboxamide], the GI50 was 10 to 30 µM.

Same assay, conditions: A375P melanoma cells, statement in words

With `O=C1CC(c2ccc(NC(=O)c3cc(N4CCOCC4)cc(C(F)(F)F)c3)cc2)=Nc2cscc2N1` [Example 3, 3-morpholino-N-(4-(2-oxo-2,3-dihydro-1H-thieno[3,4-b][1,4]diazepine-4-yl)phenyl)-5-(trifluoromethyl)benzamide] the “effects against A375P” value was “significant effects”.
`O=C1CC(c2ccc(NC(=O)Nc3cc(Cl)cc(Cl)c3)cc2)=Nc2cscc2N1` [Example 44, 1-(3,5-dichlorophenyl)-3-(4-(2-oxo-2,3-dihydro-1H-thieno[3,4-b][1,4]diazepine-4-yl)phenyl)urea] was tested, and the “effects against A375P” value was “significant effects”.
In the case of `Cc1cn(-c2cc(C(=O)Nc3ccc(C4=Nc5cscc5NC(=O)C4)cc3)cc(C(F)(F)F)c2)cn1` [Example 2, 3-(4-methyl-1H-imidazol-1-yl)-N-(4-(2-oxo-2,3-dihydro-1H-thieno[3,4-b][1,4]diazepine-4-yl)phenyl)-5-(trifluoromethyl)benzamide], the “effects against A375P” value is reported as “significant effects”.
With `O=C1CC(c2ccc(NC(=O)c3ccc(-c4ccccc4)cc3)cc2)=Nc2cscc2N1` [Example 5, N-(4-(2-oxo-2,3-dihydro-1H-thieno[3,4-b][1,4]diazepine-4-yl)phenyl)biphenyl-4-carboxamide] the “effects against A375P” value was “significant effects”.
With `CCN1CCN(Cc2ccc(NC(=O)Nc3cccc(C4=Nc5cscc5NC(=O)C4)c3)cc2C(F)(F)F)CC1` [Example 49, 1-(4-((4-ethylpiperazine-1-yl)methyl)-3-(trifluoromethyl)phenyl)-3-(3-(2-oxo-2,3-dihydro-1H-thieno[3,4-b][1,4]diazepine-4-yl)phenyl)urea] the “effects against A375P” value was “significant effects”.
In the case of `O=C1CC(c2cccc(NC(=O)Nc3cccc(Cl)c3)c2)=Nc2cscc2N1` [Example 48, 1-(3-chlorophenyl)-3-(3-(2-oxo-2,3-dihydro-1H-thieno[3,4-b][1,4]diazepine-4-yl)phenyl)urea], the “effects against A375P” value is reported as “significant effects”.
